The results in this text go back to the supplement of paper PMC12137928.

Each structure is given as a SMILES string. Structures can show the parent of a compound that is named as a salt.

The assay concerns HCT116. Particulars: 72 h. A digest of the protocol:
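For IC50 and maximal efficacy, four-parameter Hill fits were used. Input values were CellTiter-Glo luminescence from HCT116 cells seeded at 250 per well in 1536-well plates, normalized to vehicle (0%) and positive control (-100%). Pattern correction followed normalization.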

As for `Cn1c(=O)c2[nH]c(Br)nc2n(C)c1=O` [8-Bromotheophylline], the IC50 cell viability runs as follows: (ICRF193 0 nM) more than 45.8 µM; (ICRF193 200 nM) more than 45.8 µM.
`Oc1cccc2cccnc12` [8-Quinolinol Salicylic acid (1:1)]: the IC50 cell viability reads like this: (ICRF193 0 nM) more than 45.8 µM; (ICRF193 200 nM) more than 45.8 µM.
In the case of `CCCCC/C=C/C/C=C/CCCCCCCC(=O)O` [9(E),12(E)-Octadecadienoic acid], the IC50 cell viability runs as follows: (ICRF193 0 nM) more than 45.8 µM; (ICRF193 200 nM) more than 45.8 µM.
On to `CCCCCC/C=C\CCCCCCCC(=O)O` [9(Z)-Hexadecenoic acid], for which the IC50 cell viability is more than 45.8 µM (ICRF193 0 nM) and more than 45.8 µM (ICRF193 200 nM).
As to `CCC(=O)Oc1ccc2c(c1)CCC1C2CCC2(C)C(OC(=O)CC)CCC12` (stereo not drawn) [17-BETA-ESTRADIOL 3,17-DIPROPIONATE], the IC50 cell viability reads like this: (ICRF193 0 nM) more than 45.8 µM; (ICRF193 200 nM) more than 45.8 µM.
`CC(C)[C@H]1CC[C@H](C)C[C@@H]1O` [(1S,2R,5S)-(+)-Menthol]: the IC50 cell viability runs as follows: (ICRF193 0 nM) more than 45.8 µM; (ICRF193 200 nM) more than 45.8 µM.
In the case of `O=C/C=C/c1ccccc1` [(2E)-3-Phenylprop-2-enal], the IC50 cell viability is more than 45.8 µM (ICRF193 0 nM) and more than 45.8 µM (ICRF193 200 nM).
As to `CCCCCC[C@@H](CCC)C(=O)O` [(2R)-2-Propyloctanoic acid], the IC50 cell viability (ICRF193 0 nM) is more than 45.8 µM and the IC50 cell viability (ICRF193 200 nM) is more than 45.8 µM.
Consider `O=C(O)[C@@H](S)[C@H](S)C(=O)O` [(2R,3R)-2,3-Dimercaptosuccinic acid], for which the IC50 cell viability by setting is: (ICRF193 0 nM) more than 45.8 µM; (ICRF193 200 nM) more than 45.8 µM.
Consider `CC(C)[C@@H]1CC[C@@H](C)CC1=O` [(2S,5R)-5-Methyl-2-(propan-2-yl)cyclohexanone], for which the IC50 cell viability by setting is: (ICRF193 0 nM) more than 45.8 µM; (ICRF193 200 nM) more than 45.8 µM.
Turning to `Nc1ccc([As](=O)(O)O)cc1` [(4-Aminophenyl)arsonic acid], the IC50 cell viability was more than 45.8 µM (ICRF193 0 nM) and more than 45.8 µM (ICRF193 200 nM).
The compound `C[C@H](O)[C@H](O)[C@H]1CNc2nc(N)[nH]c(=O)c2N1` [(6R)-5,6,7,8-Tetrahydrobiopterin dihydrochloride] returned an IC50 cell viability (ICRF193 0 nM) of more than 45.8 µM and an IC50 cell viability (ICRF193 200 nM) of more than 45.8 µM.
`C=C1CC[C@H](O)C/C1=C/C=C1\CCC[C@]2(C)[C@@H]([C@H](C)CC[C@H](O)C(C)(C)O)CC[C@@H]12` [(24S)-24,25-Dihydroxyvitamin D3] returned an IC50 cell viability (ICRF193 0 nM) of more than 45.8 µM and an IC50 cell viability (ICRF193 200 nM) of more than 45.8 µM.
Consider `CC(C)=CCN1CC[C@]2(C)c3cc(O)ccc3C[C@H]1[C@H]2C` [(+)-Pentazocine succinate], for which the IC50 cell viability (ICRF193 0 nM) is more than 45.8 µM and the IC50 cell viability (ICRF193 200 nM) was more than 45.8 µM.
Take `COc1cc2c3cc1Oc1cc(ccc1O)C[C@@H]1c4c(cc(OC)c(O)c4Oc4ccc(cc4)C[C@@H]3N(C)CC2)CC[N+]1(C)C` [(+)-Tubocurarine chloride hydrochloride]: the IC50 cell viability was more than 45.8 µM (ICRF193 0 nM) and more than 45.8 µM (ICRF193 200 nM).
Turning to `CCN(CC)C(=O)N[C@@H]1C=C2c3cccc4[nH]cc(c34)C[C@@H]2N(C)C1` [(-)-(5S,8R)-Lisuride], the IC50 cell viability was more than 45.8 µM (ICRF193 0 nM) and more than 45.8 µM (ICRF193 200 nM).
`COC(=O)[C@H]1[C@@H](OC(=O)c2ccccc2)C[C@@H]2CC[C@H]1N2C` [(-)-Cocaine hydrochloride] returned an IC50 cell viability (ICRF193 0 nM) of more than 45.8 µM and an IC50 cell viability (ICRF193 200 nM) of more than 45.8 µM.
Take `Oc1cc(O)c2c(c1)O[C@H](c1ccc(O)c(O)c1)[C@H](O)C2` [(-)-Epicatechin]: the IC50 cell viability was more than 45.8 µM (ICRF193 0 nM) and more than 45.8 µM (ICRF193 200 nM).
Regarding `O=c1[nH]cnc2c1ncn2[C@@H]1O[C@H](CO)[C@@H](O)[C@H]1O` [(-)-Inosine], the IC50 cell viability is more than 45.8 µM (ICRF193 0 nM) and more than 45.8 µM (ICRF193 200 nM).
As to `COc1cc(CNC(=O)CCCC/C=C/C(C)C)ccc1O` [(E)-Capsaicin], the IC50 cell viability was more than 45.8 µM (ICRF193 0 nM) and more than 45.8 µM (ICRF193 200 nM).
With `Cc1c(OCC(F)(F)F)ccnc1C[S@@+]([O-])c1nc2ccccc2[nH]1` [(R)-Lansoprazole], the IC50 cell viability is more than 45.8 µM (ICRF193 0 nM) and more than 45.8 µM (ICRF193 200 nM).
For `CC[C@@]1(c2ccccc2)NC(=O)N(C)C1=O` [(S)-Mephenytoin], the IC50 cell viability is, setting by setting: (ICRF193 0 nM) more than 45.8 µM; (ICRF193 200 nM) more than 45.8 µM.
In turn, `Cn1nnc(-c2ccc(-c3ccc(N4C[C@@H](CO)OC4=O)cc3F)cn2)n1` [(S)-Tedizolid] returned an IC50 cell viability (ICRF193 0 nM) of more than 45.8 µM and an IC50 cell viability (ICRF193 200 nM) of more than 45.8 µM.
In the case of `CC(C)(C)NC[C@H](O)COc1nsnc1N1CCOCC1` [(S)-Timolol], the IC50 cell viability by setting is: (ICRF193 0 nM) more than 45.8 µM; (ICRF193 200 nM) more than 45.8 µM.
`Nc1nc(NC2CC2)c2ncn([C@H]3C=C[C@@H](CO)C3)c2n1` [ABACAVIR SULFATE] showed an IC50 cell viability (ICRF193 0 nM) of more than 45.8 µM and an IC50 cell viability (ICRF193 200 nM) of more than 45.8 µM.
In the case of `CN1CC(O)c2cc(N=NC(=N)N)c(O)cc21` (stereo unspecified) [ADRENOCHROME MONOAMINOGUANIDINE MESILATE ANHYDROUS], the IC50 cell viability by setting is: (ICRF193 0 nM) more than 45.8 µM; (ICRF193 200 nM) more than 45.8 µM.
In the case of `CCOC(=O)[C@H](C)C[C@@H](Cc1ccc(-c2ccccc2)cc1)NC(=O)CCC(=O)O` [AHU-377], the IC50 cell viability runs as follows: (ICRF193 0 nM) more than 45.8 µM; (ICRF193 200 nM) more than 45.8 µM.
With `NCCCC(O)(P(=O)(O)O)P(=O)(O)O` [ALENDRONATE SODIUM], the IC50 cell viability was more than 45.8 µM (ICRF193 0 nM) and more than 45.8 µM (ICRF193 200 nM).
In the case of `Cn1c(=O)cc(N2CCC[C@@H](N)C2)n(Cc2ccccc2C#N)c1=O` [ALOGLIPTIN BENZOATE], the IC50 cell viability was more than 45.8 µM (ICRF193 0 nM) and more than 45.8 µM (ICRF193 200 nM).
Regarding `O=C1c2c(O)cccc2C([C@@H]2O[C@H](CO)[C@@H](O)[C@H](O)[C@H]2O)c2cc(CO)cc(O)c21` (stereo partly specified) [ALOIN], the IC50 cell viability by setting is: (ICRF193 0 nM) more than 45.8 µM; (ICRF193 200 nM) more than 45.8 µM.
Take `CC(=O)OCC(=O)[C@@]12OC3(CCCC3)O[C@@H]1C[C@H]1[C@@H]3CCC4=CC(=O)C=C[C@]4(C)[C@@]3(F)[C@@H](O)C[C@@]12C` [AMCINONIDE]: the IC50 cell viability (ICRF193 0 nM) is more than 45.8 µM and the IC50 cell viability (ICRF193 200 nM) was more than 45.8 µM.
Regarding `CC1(C)S[C@@H]2[C@H](NC(=O)[C@H](N)c3ccccc3)C(=O)N2[C@H]1C(=O)O` [AMPICILLIN SODIUM], the IC50 cell viability by setting is: (ICRF193 0 nM) more than 45.8 µM; (ICRF193 200 nM) more than 45.8 µM.
For the compound `OB1OCc2cc(F)ccc21` [AN-2690], the IC50 cell viability reads like this: (ICRF193 0 nM) more than 45.8 µM; (ICRF193 200 nM) more than 45.8 µM.
On to `N#Cc1ccc(Oc2ccc3c(c2)COB3O)cc1` [AN-2728], for which the IC50 cell viability was more than 45.8 µM (ICRF193 0 nM) and more than 45.8 µM (ICRF193 200 nM).
Regarding `CN[C@@H]1[C@@H](O[C@H]2O[C@H](CO)[C@@H](N)[C@H](O)[C@H]2O)OC2C[C@@H](N)[C@@H](O[C@H]3[C@H](O)[C@@H](O)[C@H](N)C[C@@H]3N)OC2[C@@H]1O` (stereo partly specified) [APRAMYCIN SULFATE], the IC50 cell viability is, setting by setting: (ICRF193 0 nM) more than 45.8 µM; (ICRF193 200 nM) more than 45.8 µM.
Consider `OCC(O)C(O)C(O)CO` (stereo unspecified) [ARABITOL(D)], for which the IC50 cell viability was more than 45.8 µM (ICRF193 0 nM) and more than 45.8 µM (ICRF193 200 nM).
In the case of `CCCCCCCCCCCC(=O)OCN1C(=O)CCc2ccc(OCCCCN3CCN(c4cccc(Cl)c4Cl)CC3)cc21` [ARIPIPRAZOLE LAUROXIL], the IC50 cell viability was more than 45.8 µM (ICRF193 0 nM) and more than 45.8 µM (ICRF193 200 nM).
`Nc1ncnc2c1ncn2[C@@H]1O[C@H](COP(=O)(O)OP(=O)(O)OP(=O)(O)O)[C@@H](O)[C@H]1O` [ATP (disodium salt)] returned an IC50 cell viability (ICRF193 0 nM) of more than 45.8 µM and an IC50 cell viability (ICRF193 200 nM) of more than 45.8 µM.
